Results published in US3965109A, “Certain aryl amino pyridines” (priority 1971, dated 1976).

Legend:
[1] = test system: Plutella maculipennis (diamond back moth larvae); assay: Pest toxicity test; type: in vivo
[2] = test system: Pseudomonas syringae; assay: Antibacterial agar test (B6); type: cell-based; conditions: 50 ppm; 5 days
[3] = test system: Aedes aegypti (mosquito adults); assay: Pest toxicity test; type: in vivo; conditions: 0.01% by weight; plywood; 1 day
[4] = test system: Tetranychus telarius (red spider mites, adults); assay: Pest toxicity test; type: in vivo; conditions: 0.1% by weight; French bean; 3 days
[5] = test system: Phaedon cochleariae (mustard beetles); assay: Pest toxicity test; type: in vivo
[6] = test system: Corynebacterium michiganense; assay: Antibacterial agar test (B2); type: cell-based; conditions: 50 ppm; 5 days
Experimental: (§1) This Example illustrates the activity of compounds used as the active ingredients of compositions according to the invention against a variety of plant bacterial diseases and fungal post-harvest saprophytic diseases. In a test for such activity, 5 milligrams of the compound to be tested was dissolved or suspended in 10 ml. of acetone and enough of this solution or suspension was added to 18 ml. of nutrient agar (for the bacterial diseases) or 16 ml. of 2% malt agar (for the fungal diseases) to give a final concentration of 50 parts per million of the compound under test. A streptomycin preparation (2 ml. containing 100 units per ml.) was added to the malt agar to prevent bacterial contamination of the fungal tests.
(§2) The agar preparations were dried overnight in Petri dishes and inoculated the following morning with the bacterial or fungal diseases using a multipoint inoculator. The antibacterial activity was assessed after 5 days and the antifungal activity after 6 days. The results of the tests are set out in Table 16 (anti bacterial activity) and Table 17 (antifungal activity). The results are graded as in Example 1 above.

[7] = test system: Agrobacterium tumifaciens; assay: Antibacterial agar test (B1); type: cell-based; conditions: 50 ppm; 5 days
[8] = test system: Megoura viceae; assay: Pest toxicity test; type: in vivo; conditions: 0.1% by weight; broad bean; 2 days
[9] = test system: Streptomyces scabies; assay: Antibacterial agar test (B7); type: cell-based; conditions: 50 ppm; 5 days
[10] = test system: Aphis fabae; assay: Pest toxicity test; type: in vivo; conditions: 0.1% by weight; broad bean; 2 days
[11] = test system: Aedes aegypti (mosquito larvae); assay: Pest toxicity test; type: in vivo; conditions: for Mortality grading (kill): 0.01% by weight, water, 1 day
[12] = test system: Xanthomonas malvacearum; assay: Antibacterial agar test (B3); type: cell-based; conditions: 50 ppm; 5 days
Experimental: as §1, §2

[13] = test system: Erwinia carotovora; assay: Antibacterial agar test (B4); type: cell-based; conditions: 50 ppm; 5 days
[14] = test system: Xanthomonas oryzae; type: cell-based; conditions: 50 ppm; 5 days
[15] = test system: Tetranychus telarius (red spider mites, eggs); assay: Pest toxicity test; type: in vivo; conditions: 0.1% by weight; French bean; 3 days
[16] = test system: Musca domestica (houseflies); assay: Pest toxicity test, contact test; type: in vivo; conditions: 0.1% by weight; milk/sugar; 2 days; flies sprayed directly
[17] = test system: Puccinia recondita (wheat); assay: Fungicidal test against foliar disease A (foliage spray plus soil drench); type: in vivo; conditions: 100 ppm spray and drench; 10 days
[18] = test system: Uncinula necator (vine); assay: Fungicidal test against foliar disease D (foliage spray plus soil drench); type: in vivo; conditions: 100 ppm spray and drench; 10 days
[19] = test system: Pieris brassicae (cabbage white caterpillars); assay: Pest toxicity test; type: in vivo; conditions: 0.1% by weight, 2 days
[20] = test system: Plasmopara viticola (vine); assay: Fungicidal test against foliar disease C (foliage spray plus soil drench); type: in vivo; conditions: 100 ppm spray and drench; 10 days
[21] = 0.1% by weight, mustard/paper, 2 days

Structure (SMILES)	Antibacterial activity grading B6 [2]	Mortality grading (kill) [3]	Mortality grading (kill) [4]	Antibacterial activity grading B2 [6]	Antibacterial activity grading B1 [7]	Mortality grading (kill) [8]	Antibacterial activity grading B7 [9]	Mortality grading (kill) [10]	Mortality grading (kill) [11]	Antibacterial activity grading B3 [12]	Antibacterial activity grading B4 [13]	Antibacterial activity grading B5 [14]	Mortality grading (kill) [15]	Mortality grading (kill), contact test [16]	further results
O=[N+]([O-])c1ccc(Nc2c(Cl)c(F)nc(F)c2Cl)c([N+](=O)[O-])c1 [Compound 1, 3,5-dichloro-2,6-difluoro-4(2,4-dinitroanilinopyridine]	3 (0 to 5)	2 (2 represents 60 - 90% kill)	3 (3 represents over 90% kill)	3 (0 to 5)	3 (0 to 5)	3 (3 represents over 90% kill)	3 (0 to 5)	3 (3 represents over 90% kill)	0 (O represents less than 30% kill)	3 (0 to 5)	3 (0 to 5)	3 (0 to 5)	0 (O represents less than 30% kill)	0 (O represents less than 30% kill)	Mortality grading (kill) ([1]; in vivo): 0 (key: O represents less than 30% kill; 1 represents 30 - 49% kill; 2 represents 60 - 90% kill; 3 represents over 90% kill; C indicates a chemosterilant effect.; A indicates an antifeeding effect.); Mortality grading (kill) ([5]; in vivo): 0 (key: O represents less than 30% kill; 1 represents 30 - 49% kill; 2 represents 60 - 90% kill; 3 represents over 90% kill; C indicates a chemosterilant effect.; A indicates an antifeeding effect.); abnormal growth effects in larva of mosquitos ([11]; in vivo): abnormal growth effects
O=[N+]([O-])c1ccc(Nc2c(Cl)c(Cl)nc(Cl)c2Cl)c(C(F)(F)F)c1 [Compound 41, 4(4-Nitro-2-trifluoromethylanilino)-tetrachloropyridine]	1 (26 to 60)	0 (O represents less than 30% kill)	3 (3 represents over 90% kill)	0 (61 to 100)	3 (0 to 5)	0 (O represents less than 30% kill)	0 (61 to 100)	0 (O represents less than 30% kill)	3 (3 represents over 90% kill)	2 (6 to 25)	1 (26 to 60)	1 (26 to 60)	3 (3 represents over 90% kill)	2 (2 represents 60 - 90% kill)	Amount of disease grading, disease A (Table 4) [17]: 0 (61 to 100); Amount of disease grading, disease D (Table 4) [18]: 3 (0 to 5); Mortality grading (kill) [1, 21]: 1 (1 represents 30 - 49% kill); Mortality grading (kill) [19]: 0 (O represents less than 30% kill); Mortality grading (kill) [5, 21]: 2 (2 represents 60 - 90% kill); Amount of disease grading, disease C (Table 4) [20]: 3 (0 to 5)
